“And” between values parts separate entries of the source, which are not always exact repeats. Equal values may be shown once. Read-outs that look alike come from different tables or passages of the source.
Columns and labels:
IL-2 [1] = system: IL-2
Protocol: The complexes were administered in these dilutions, as drinking water, to male Balb-C mice, 6-8 weeks of age over a 4 day period. The exact amount of liquid intake was recorded daily. […] The cells were incubated at a concentration of 10^7 cells/ml in enriched RPMI containing 2 μg/ml of con-A for 24 hours at 37° C. The supernatants were collected and tested for IL-2 content.

West Nile virus (WNV) = system: West Nile virus (WNV)
Text: WNV is a toga virus of the flavivirus group, a positive single stranded RNA virus, which when injected IP to mice usually kills them within 5-8 days as a result of extensive damage to the central nervous system.

IL-2 [2] = system: IL-2; remark: listed apart in the source
mouse macrophages = assay: Survival of mouse macrophage monolayer incubated with complex
Protocol: All cultures were then infected with 10^4 PFU/plate. After 72 h incubation the supernatants were collected and the virus was titrated against Vera cells.

[3] = system: colony stimulating factor (CSF)
Protocol: (§1) Spleens were removed from 15, male Balb-c mice 6 to 8 weeks of age. The spleen cells were pushed through stainless steel 60 mesh (U.S. Standard) nets resting in 5 mm Petri dishes containing PBS in order to separate the cells. The cells were then collected into centrifuge tubes and spun at 1000 rpm for 10 minutes. The supernatant was discarded and cells were treated with 5 ml of hypotonic buffer (0.15M NH4Cl; 0.01M KHCO3 dissolved in double distilled water, pH 7.2) for exactly two minutes. Thereafter, PBS was added to the cells and the test tubes were centrifuged for 10 minutes at 1000 rpm. The cells were rinsed twice and counted in a hemocytometer using trypan blue to test for viability. The cells were brought to a concentration of 10^7viable cells/ml.

IL-2 [4] = conditions: 10^7 viable cells/ml
Protocol: as §1

[5] = 1 μg/ml H2O as drinking water over 4 days
[6] = 10 μg/ml H2O as drinking water over 4 days
[7] = 5 pg (as starting material of Preparation 1)
[8] = 50 pg (as starting material of Preparation 1)
[9] = 500 pg (as starting material of Preparation 1)
[10] = 5 ng (as starting material of Preparation 1)
[11] = 50 ng (as starting material of Preparation 1)
[12] = 500 ng (as starting material of Preparation 1)
[13] = 5 μg (as starting material of Preparation 1)
[14] = 50 μg (as starting material of Preparation 1)

With `Cl[Te]1(Cl)(Cl)OCCO1.N` [Example 1, equimolar complex of TeO2 and ethylene glycol, NH4Cl salt] the “IL-2 content, cpm” value (IL-2 [1]; [5]) was 44500 cpm, the “Percent increase as compared to control” value (IL-2 [1]; [5]) was “+35%” and the “IL-2 content, cpm” value (IL-2 [1]; [6]) was 49179 cpm. For the same compound, the “Percent increase as compared to control” value (IL-2 [1]; [6]) was “+50%”, the “inducing lymphokine production when given orally” value (IL-2 [1]; orally in an aqueous diluent) was “active” and the “susceptibility of West Nile virus infections in mice” value (West Nile virus (WNV); mouse, in vivo) was “susceptible”. The “# Alive/Total” value (West Nile virus (WNV); mouse, in vivo, ip) was 3/5, the “fate of the three survivors after day 8” value (West Nile virus (WNV); second experiment, 10^3 IPLD50 virus + complex) was “Two out of the remaining three survived an additional 8 days, whereas the third remained alive without any manifestations of clinical symptoms” and the IL-2 production (IL-2 [2]; NORMAL subjects, PHA +, 5 μg 0.2 ml PBS) was 30.4 CPM × 10^−3 and 38.9 CPM × 10^−3 and 36.4 CPM × 10^−3. The IL-2 production (IL-2 [2]; NORMAL subjects, PHA +, 1:50 PBS dilution of 5 μg/0.2 ml) was 38.9 CPM × 10^−3 and 53.5 CPM × 10^−3 and 48.2 CPM × 10^−3, the IL-2 production (IL-2 [2]; NORMAL subjects, PHA +, 1:100 PBS dilution of 5 μg/0.2 ml) was 54.2 CPM × 10^−3 and 44.8 CPM × 10^−3 and 38.6 CPM × 10^−3 and the IL-2 production (IL-2 [2]; NORMAL subjects, PHA +, 1:200 PBS dilution of 5 μg/0.2 ml) was 49.8 CPM × 10^−3 and 38.3 CPM × 10^−3 and 38.6 CPM × 10^−3. The IL-2 production (IL-2 [2]; NORMAL subjects, PHA −, 5 μg 0.2 ml PBS) was 2.1 CPM × 10^−3 and 2.3** CPM × 10^−3, the IL-2 production (IL-2 [2]; NORMAL subjects, PHA −, 1:50 PBS dilution of 5 μg/0.2 ml) was 52.2 CPM × 10^−3 and 50.8 CPM × 10^−3 and 43.6 CPM × 10^−3 and the IL-2 production (IL-2 [2]; NORMAL subjects, PHA −, 1:100 PBS dilution of 5 μg/0.2 ml) was 50.3 CPM × 10^−3 and 46.1 CPM × 10^−3 and 38.4 CPM × 10^−3. The IL-2 production (IL-2 [2]; NORMAL subjects, PHA −, 1:200 PBS dilution of 5 μg/0.2 ml) was 47.1 CPM × 10^−3 and 31.3 CPM × 10^−3 and 30.1 CPM × 10^−3, the IL-2 production (IL-2 [2]; SLE patients, PHA +, 5 μg 0.2 ml PBS) was 6.3 CPM × 10^−3 and 8.2 CPM × 10^−3 and 4.1 CPM × 10^−3 and the IL-2 production (IL-2 [2]; SLE patients, PHA +, 1:50 PBS dilution of 5 μg/0.2 ml) was 24.2 CPM × 10^−3 and 28.1 CPM × 10^−3 and 23.8 CPM × 10^−3. For the same compound, the IL-2 production (IL-2 [2]; SLE patients, PHA +, 1:100 PBS dilution of 5 μg/0.2 ml) was 19.7 CPM × 10^−3 and 24.0 CPM × 10^−3 and 20.2 CPM × 10^−3, the IL-2 production (IL-2 [2]; SLE patients, PHA +, 1:200 PBS dilution of 5 μg/0.2 ml) was 15.4 CPM × 10^−3 and 18.6 CPM × 10^−3 and 16.8 CPM × 10^−3 and the IL-2 production (IL-2 [2]; SLE patients, PHA −, 5 μg 0.2 ml PBS) was 2.0 CPM × 10^−3 and 2.4 CPM × 10^−3. For the same compound, the IL-2 production (IL-2 [2]; SLE patients, PHA −, 1:100 PBS dilution of 5 μg/0.2 ml) was 32.1 CPM × 10^−3 and 35.1 CPM × 10^−3 and 18.1 CPM × 10^−3, the “state of macrophages after 24 h incubation” value (mouse macrophages; 1 μg and 0.1 μg (others)) was “remained unaffected” and the “state of macrophages after 24 h incubation” value (mouse macrophages; 5 μg) was “died”. For the same compound, the CSF [3, 7] was 140 colonies/dish, the CSF [3, 8] was 260 colonies/dish and the CSF [3, 9] was 175 colonies/dish. It also gave a CSF [3, 10] of 120 colonies/dish, a CSF [3, 11] of 75 colonies/dish and a CSF [3, 12] of 25 colonies/dish. For the same compound, the CSF [3, 13] was 5 colonies/dish, the CSF [3, 14] was 2 colonies/dish and the IL-2 (IL-2 [4]; [7]) was 12,000 cpm. The IL-2 (IL-2 [4]; [8]) was 38,000 cpm, the IL-2 (IL-2 [4]; [9]) was 30,000 cpm and the IL-2 (IL-2 [4]; [10]) was 15,000 cpm. The IL-2 (IL-2 [4]; [11]) was 6,000 cpm, the IL-2 (IL-2 [4]; [12]) was 5,000 cpm and the IL-2 (IL-2 [4]; [13]) was 5,000 cpm. For the same compound, the IL-2 (IL-2 [4]; [14]) was 5,000 cpm, the “% Survival” value (fibrosarcoma cells; 10 μg IP at intervals, 4 days after inoculation with tumor cells) was 100% and the “% Survival” value (fibrosarcoma cells; 10 μg IP at intervals, 9 days after inoculation with tumor cells) was 100%. The “% Survival” value (fibrosarcoma cells; 10 μg IP at intervals, 23 days after inoculation with tumor cells) was 100%, the “% Survival” value (fibrosarcoma cells; 10 μg IP at intervals, 30 days after inoculation with tumor cells) was 100% and the “% Survival” value (fibrosarcoma cells; 10 μg IP at intervals, 37 days after inoculation with tumor cells) was 100%. The “% Survival” value (fibrosarcoma cells; 39 days after inoculation with tumor cells, start of increased dosage regimen) was 100%, the “% Survival” value (fibrosarcoma cells; 41 days after inoculation, increased dosage regimen from day 39) was 100% and the “% Survival” value (fibrosarcoma cells; 43 days after inoculation, increased dosage regimen from day 39) was 100%. For the same compound, the “% Survival” value (fibrosarcoma cells; 46 days after inoculation, increased dosage regimen from day 39) was 80%, the “% Survival” value (fibrosarcoma cells; 48 days after inoculation, increased dosage regimen from day 39) was 80% and the “% Survival” value (fibrosarcoma cells; 50 days after inoculation, increased dosage regimen from day 39) was 80%. The “% Survival” value (fibrosarcoma cells; 53 days after inoculation, increased dosage regimen from day 39) was 60%, the “% Survival” value (fibrosarcoma cells; 60 days after inoculation, increased dosage regimen from day 39) was 40% and the “% Survival” value (fibrosarcoma cells; 67 days after inoculation, increased dosage regimen from day 39) was 20%. For the same compound, the “% Survival” value (fibrosarcoma cells; 68 days after inoculation, increased dosage regimen from day 39) was 0% and the mortality (fibrosarcoma cells; group (b), until just after the increased dosage regimen (day 39)) was “^1Day 39 marked the start of an increased dosage regimen to determine the toxicity of the complex of Example 1. The mortality results for group (b) were 0% until just after the increased dosage regimen”.
